From article PMC11882969 (Nature Communications, 2025)
Values joined by “and” are separate entries in the source; they are usually repeats but may differ in a detail not shown here. Equal values may be shown once.

Biological target: hCB1 (Homo sapiens, UniProt P21554)
Assay: bioSensAll ebBRET signaling profiling, hCB1
Type: cell-based
Parameters: host or cells: HEK293SL cells, transient PEI transfection
Conditions: for RE, relative efficacy: vs CP-55,940

hCB1, sequence (P21554 whole entry): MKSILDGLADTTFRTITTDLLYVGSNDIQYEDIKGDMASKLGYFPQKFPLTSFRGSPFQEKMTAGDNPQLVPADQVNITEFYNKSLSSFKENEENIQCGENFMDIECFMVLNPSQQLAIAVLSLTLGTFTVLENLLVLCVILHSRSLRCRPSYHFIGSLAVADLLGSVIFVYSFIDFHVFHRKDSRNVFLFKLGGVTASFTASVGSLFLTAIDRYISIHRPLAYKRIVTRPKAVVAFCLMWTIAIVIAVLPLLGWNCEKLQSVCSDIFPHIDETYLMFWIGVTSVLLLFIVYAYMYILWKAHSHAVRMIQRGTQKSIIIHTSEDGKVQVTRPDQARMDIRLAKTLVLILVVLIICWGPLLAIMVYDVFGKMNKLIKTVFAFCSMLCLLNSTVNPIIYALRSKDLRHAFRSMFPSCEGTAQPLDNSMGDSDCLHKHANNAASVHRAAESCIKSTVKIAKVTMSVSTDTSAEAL

COC(=O)C(C)(NC(=O)c1cc(C)n(-c2cccc(C(F)(F)F)c2)n1)c1cccs1 (centres unmarked) [‘4042]
Gs hCB1 (Log [Compound] (M) -8.39794): 6872
Gz hCB1 (Log [Compound] (M) -8.39794): 84.7686 and 103.436 and 80.0517
G13 hCB1 (Log [Compound] (M) -8.68787): 39.593 and 30.3572
G15 hCB1 (Log [Compound] (M) -8.68787): 97.8136 and 87.6381
Gi1 hCB1 (Log [Compound] (M) -8.68787): 91.7785 and 78.2511 and 91.448
Gi2 hCB1 (Log [Compound] (M) -8.68787): 95.663 and 73.4469
GoB hCB1 (Log [Compound] (M) -8.68787): 96.3854 and 73.3436 and 84.1561
Gq hCB1 (Log [Compound] (M) -8.68787): 1066
Gs hCB1 (Log [Compound] (M) -8.68787): 6260
Gz hCB1 (Log [Compound] (M) -8.68787): 96.1128 and 114.514 and 58.5255
G13 hCB1 (Log [Compound] (M) -9.15521): 17.7531 and 19.6344
G15 hCB1 (Log [Compound] (M) -9.15521): 67.1744 and 66.4649
Gi1 hCB1 (Log [Compound] (M) -9.15521): 78.7311 and 50.1158 and 63.8224
Gi2 hCB1 (Log [Compound] (M) -9.15521): 65.4704 and 47.7485
GoB hCB1 (Log [Compound] (M) -9.15521): 59.8283 and 42.5561 and 56.6226
Gq hCB1 (Log [Compound] (M) -9.15521): 1117
Gs hCB1 (Log [Compound] (M) -9.15521): 6551
G15 hCB1 (Log [Compound] (M) -9.61989): 31.8785 and 42.2144
Gi2 hCB1 (Log [Compound] (M) -9.61989): 32.2472 and 21.8596
GoB hCB1 (Log [Compound] (M) -9.61989): 29.5611 and 20.1669 and 24.5425
Gq hCB1 (Log [Compound] (M) -9.61989): 1001
Gs hCB1 (Log [Compound] (M) -9.61989): 6299
G15 hCB1 (Log [Compound] (M) -10.0969): 15.3529 and 24.9603
GoB hCB1 (Log [Compound] (M) -10.0969): 15.2383 and 7.632 and 9.061
Gq hCB1 (Log [Compound] (M) -10.0969): 1213
Gs hCB1 (Log [Compound] (M) -10.0969): 6447
Gq hCB1 (Log [Compound] (M) -10.5529): 1076
Gs hCB1 (Log [Compound] (M) -10.5529): 6140
Gq hCB1 (Log [Compound] (M) -11.0177): 1045
Gs hCB1 (Log [Compound] (M) -11.0177): 6569
Gq hCB1 (Log [Compound] (M) -11.4949): 1094
Gs hCB1 (Log [Compound] (M) -11.4949): 6245
Gq hCB1 (Log [Compound] (M) -11.9208): 1111
Gs hCB1 (Log [Compound] (M) -11.9208): 6591
Gq hCB1 (Log [Compound] (M) -12.3979): 1117
Gs hCB1 (Log [Compound] (M) -12.3979): 6511
Gq hCB1 (Log [Compound] (M) -12.8861): 1023
Gs hCB1 (Log [Compound] (M) -12.8861): 6621
pEC50 [95% CI] (hCB1 G13): 8.69 [8.0 – 9.3]
RE, relative efficacy (hCB1 G13): 0.91
RE, relative efficacy (hCB1 G15): 0.74
pEC50 [95% CI] (hCB1 Gi1): 9.32 [9.2 – 9.4]
RE, relative efficacy (hCB1 Gi1): 0.97
pEC50 [95% CI] (hCB1 Gi2): 9.25 [9.0 – 9.5]
RE, relative efficacy (hCB1 Gi2): 1.01
pEC50 [95% CI] (hCB1 GoB): 9.20 [9.1 – 9.3]
RE, relative efficacy (hCB1 GoB): 1.04
RE, relative efficacy (hCB1 Gz): 0.62
RE, relative efficacy (hCB1 ßarr2+GRK2): 0.81
EC50 (read-out: EC50 [95% CI], hCB1 Barr2 + GRK2): 3.6 nM
